Experimental findings from PubChem BioAssay (NCI) are described below.

Some test systems named below: 786-0 renal; HCT-116 colon; PC-3 prostate; A549 NSCLC; MOLT-4 leukemia; HL-60(TB) leukemia; SW-620 colon; HCT-15 colon; U251 CNS; CCRF-CEM leukemia.
Common to all, as to test: NCI anticancer screen, dose series, 48 h

Values joined by “and” are separate entries in the source; they are usually repeats but may differ in a detail not shown here. Identical values can stand only once.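 Five concentrations, 48 hours, 96-well plates. Here, GI50 denotes the concentration required for 50% inhibition of growth. TGI denotes the concentration required for complete inhibition of growth.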 Some results are limits rather than exact numbers.

On to `C=C(C)[C@@H]1CC[C@]2(C)CC[C@]3(C)[C@H](CC[C@@H]4[C@@]5(C)CC[C@H](O)C(C)(C)[C@@H]5CC[C@]43C)[C@@H]12`, for which the TGI is above 63.8 µM in the assay with 786-0 renal; above 100 µM with HCT-116 colon; 98.4 µM with PC-3 prostate; above 100 µM in the assay with A549 NSCLC; above 70.3 µM in the assay with MOLT-4 leukemia; above 100 µM with HL-60(TB) leukemia. For the same compound, the TGI is above 72.3 µM in the assay with SW-620 colon, above 100 µM with HCT-15 colon, 41 µM in the assay with U251 CNS and 48.9 µM in the assay with CCRF-CEM leukemia.

For `CC[C@@H]1c2c(C#N)ncn2-c2cnc(Nc3ccc(C(=O)NC4CCN(C5CCN(CC6CC6)CC5)CC4)cc3OC)nc2N1C1CCCC1`, the GI50 is 0.164 µM in the assay with 786-0 renal; 0.0313 µM in the assay with HCT-116 colon; 0.0438 µM with PC-3 prostate; 0.0401 µM in the assay with A549 NSCLC; 0.037 µM in the assay on MOLT-4 leukemia; 0.0249 µM in the assay on HL-60(TB) leukemia. Also, the GI50 is 0.0308 µM and 0.0327 µM in the assay on SW-620 colon; 0.379 µM in the assay on HCT-15 colon; 0.042 µM in the assay on U251 CNS; 0.00738 µM in the assay on CCRF-CEM leukemia. In addition, the TGI worked out at 1.2 µM with 786-0 renal; 1.19 µM with HCT-116 colon; 2.08 µM with PC-3 prostate; 1.12 µM in the assay with A549 NSCLC; 1.51 µM with MOLT-4 leukemia; 0.104 µM with HL-60(TB) leukemia. The TGI in the assay on SW-620 colon is 1.76 µM and 1.78 µM; in the assay on HCT-15 colon, 1.44 µM; with U251 CNS it was 1.48 µM; in the assay on CCRF-CEM leukemia it was 1.58 µM.

Regarding `COc1cc(/C=C\c2cc(OC)c(OC)c(OC)c2)cc(NC(=O)/C=C/c2cc(OC)c(OC)c(OC)c2)c1OC`, the GI50 was 6.22 µM in the assay on 786-0 renal; 4.57 µM in the assay on HCT-116 colon; 3.02 µM in the assay on PC-3 prostate; 4.49 µM in the assay on A549 NSCLC; 3.15 µM in the assay on MOLT-4 leukemia; 0.509 µM in the assay on HL-60(TB) leukemia. Besides, the GI50 in the assay on SW-620 colon was 5.89 µM; with HCT-15 colon it was 5.51 µM; in the assay with U251 CNS, 6.71 µM; in the assay with CCRF-CEM leukemia, 2.67 µM. Also, the TGI in the assay with 786-0 renal was above 100 µM; in the assay on HCT-116 colon, above 100 µM; in the assay on PC-3 prostate, above 100 µM; in the assay with A549 NSCLC, above 100 µM; with MOLT-4 leukemia it was above 100 µM; in the assay with HL-60(TB) leukemia it was 4.46 µM. Further, the TGI in the assay on SW-620 colon, in the assay with HCT-15 colon, in the assay with U251 CNS and in the assay with CCRF-CEM leukemia was above 100 µM throughout.

In the case of `CNC(=O)Nc1nc2ccc([N+](=O)[O-])cc2[nH]1`, the TGI with 786-0 renal, in the assay on HCT-116 colon, in the assay with PC-3 prostate, in the assay on A549 NSCLC, in the assay with MOLT-4 leukemia and in the assay with HL-60(TB) leukemia was above 100 µM throughout. Further, the TGI in the assay with SW-620 colon, in the assay on HCT-15 colon, in the assay on U251 CNS and with CCRF-CEM leukemia was above 100 µM throughout.

With `CCOc1cccc(/C=N/N=C2\C(=O)Nc3c(Cl)cc(Cl)cc32)c1O`, the TGI in the assay on 786-0 renal, in the assay with HCT-116 colon, in the assay with PC-3 prostate, with A549 NSCLC, with MOLT-4 leukemia and with HL-60(TB) leukemia was above 100 µM each time. Further, the TGI in the assay with SW-620 colon, with HCT-15 colon, with U251 CNS and in the assay on CCRF-CEM leukemia was above 100 µM throughout.

Take `CN(CCO)CC[C@H](CSc1ccccc1)Nc1ccc(S(=O)(=O)NC(=O)c2ccc(N3CCC([C@@H](O)c4ccccc4-c4ccc(Cl)cc4)CC3)cc2)cc1S(=O)(=O)C(F)(F)F`: the GI50 is 3.62 µM in the assay on 786-0 renal; 2.26 µM with HCT-116 colon; 2.51 µM in the assay with PC-3 prostate; above 100 µM in the assay with A549 NSCLC; 0.0719 µM in the assay on MOLT-4 leukemia; 0.886 µM with HL-60(TB) leukemia. Besides, the GI50 was 2.43 µM in the assay on SW-620 colon, above 100 µM in the assay with HCT-15 colon, 2.82 µM with U251 CNS and 0.0472 µM with CCRF-CEM leukemia. Besides, the TGI in the assay on 786-0 renal was 10.1 µM; in the assay on HCT-116 colon, 6.8 µM; with PC-3 prostate, 9.05 µM; with A549 NSCLC it was above 100 µM; with MOLT-4 leukemia, 1.11 µM; with HL-60(TB) leukemia, 8.1 µM. The TGI is 8.91 µM with SW-620 colon, above 100 µM in the assay on HCT-15 colon, 8.88 µM in the assay with U251 CNS and above 100 µM with CCRF-CEM leukemia.

Regarding `C[C@@]1(C(=O)O)CCC[C@]2(C)C1CC[C@@]13CC(=O)[C@@](CO)(CC[C@]12O)C3` (stereo not given in full), the GI50 with 786-0 renal, in the assay with HCT-116 colon, in the assay on PC-3 prostate, in the assay with A549 NSCLC, in the assay on MOLT-4 leukemia and with HL-60(TB) leukemia was above 100 µM throughout. Further, the GI50 with SW-620 colon, in the assay on HCT-15 colon, in the assay on U251 CNS and in the assay on CCRF-CEM leukemia was above 100 µM throughout. The TGI in the assay with 786-0 renal, with HCT-116 colon, in the assay on PC-3 prostate, in the assay on A549 NSCLC, in the assay with MOLT-4 leukemia and in the assay on HL-60(TB) leukemia was above 100 µM in each case. For the same compound, the TGI with SW-620 colon, in the assay on HCT-15 colon, with U251 CNS and in the assay on CCRF-CEM leukemia was above 100 µM each time.

As to `CCOC(=O)Nc1ccc2c(c1)/C(=N\NC(N)=S)c1ccccc1-2`, the GI50 is 3.06 µM in the assay with 786-0 renal; 4.32 µM with HCT-116 colon; 4.44 µM in the assay with PC-3 prostate; 3.79 µM in the assay on A549 NSCLC; 2.83 µM in the assay with MOLT-4 leukemia; 4.24 µM in the assay with HL-60(TB) leukemia. The GI50 in the assay with SW-620 colon is 5.91 µM; in the assay on HCT-15 colon, 3.25 µM; in the assay on U251 CNS, 4.54 µM; in the assay on CCRF-CEM leukemia, 3.49 µM. Besides, the TGI in the assay with 786-0 renal was determined as 9.08 µM; in the assay with HCT-116 colon it was 50 µM; in the assay with PC-3 prostate, 24.8 µM; with A549 NSCLC, 19.7 µM; in the assay with MOLT-4 leukemia it was 13.2 µM; in the assay with HL-60(TB) leukemia, 16.1 µM. The TGI was determined as 32.6 µM with SW-620 colon, 18.4 µM in the assay on HCT-15 colon, 40.9 µM in the assay on U251 CNS and 31.5 µM in the assay with CCRF-CEM leukemia.

Turning to `C=C1C(=O)O[C@@H]2C[C@@H](C)[C@@H]3C=CC(=O)[C@@]3(C)[C@@H](O)[C@H]12`, the TGI amounted to 5.4 µM in the assay on 786-0 renal; 4.06 µM with HCT-116 colon; 7.22 µM in the assay with PC-3 prostate; 11.8 µM in the assay on A549 NSCLC; 3.36 µM in the assay with MOLT-4 leukemia; 2.4 µM in the assay on HL-60(TB) leukemia. Moreover, the TGI was 2.59 µM in the assay with SW-620 colon, 9.54 µM with HCT-15 colon, 2.99 µM with U251 CNS and 2.05 µM in the assay with CCRF-CEM leukemia.
